This note sets out measurements from patent US11242335B2, “Fluorine-substituted indazole compounds and uses thereof” (SUNSHINE LAKE PHARMA CO., LTD., priority 2017, dated 2022).

The assay concerns the target T1, soluble guanylate cyclase (sGC) expressed by CHO-K1-Rat sGC monoclonal cell line (Rattus norvegicus, UniProt P19686+P20595).
T1 construct: expressed in transfected cells; host or cells: CHO-K1
T1 sequence (P19686 1-690): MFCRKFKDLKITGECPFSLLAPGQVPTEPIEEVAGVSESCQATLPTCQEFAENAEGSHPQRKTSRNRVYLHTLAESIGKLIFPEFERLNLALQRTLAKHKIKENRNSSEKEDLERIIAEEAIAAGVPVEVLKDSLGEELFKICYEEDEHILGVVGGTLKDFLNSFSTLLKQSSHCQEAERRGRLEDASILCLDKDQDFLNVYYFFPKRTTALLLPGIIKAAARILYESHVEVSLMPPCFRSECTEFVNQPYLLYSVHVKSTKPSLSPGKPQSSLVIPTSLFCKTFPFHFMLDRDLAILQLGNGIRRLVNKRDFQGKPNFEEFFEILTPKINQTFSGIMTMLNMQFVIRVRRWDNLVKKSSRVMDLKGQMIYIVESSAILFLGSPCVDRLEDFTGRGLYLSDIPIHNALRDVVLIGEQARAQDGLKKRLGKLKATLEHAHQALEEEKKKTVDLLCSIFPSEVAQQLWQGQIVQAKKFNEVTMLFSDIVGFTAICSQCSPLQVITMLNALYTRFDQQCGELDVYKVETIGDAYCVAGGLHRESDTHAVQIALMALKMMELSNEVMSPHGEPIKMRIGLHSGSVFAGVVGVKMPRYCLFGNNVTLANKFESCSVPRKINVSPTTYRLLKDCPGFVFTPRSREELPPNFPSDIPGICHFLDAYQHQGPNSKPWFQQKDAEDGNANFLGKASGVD
T1 sequence (P20595 1-619): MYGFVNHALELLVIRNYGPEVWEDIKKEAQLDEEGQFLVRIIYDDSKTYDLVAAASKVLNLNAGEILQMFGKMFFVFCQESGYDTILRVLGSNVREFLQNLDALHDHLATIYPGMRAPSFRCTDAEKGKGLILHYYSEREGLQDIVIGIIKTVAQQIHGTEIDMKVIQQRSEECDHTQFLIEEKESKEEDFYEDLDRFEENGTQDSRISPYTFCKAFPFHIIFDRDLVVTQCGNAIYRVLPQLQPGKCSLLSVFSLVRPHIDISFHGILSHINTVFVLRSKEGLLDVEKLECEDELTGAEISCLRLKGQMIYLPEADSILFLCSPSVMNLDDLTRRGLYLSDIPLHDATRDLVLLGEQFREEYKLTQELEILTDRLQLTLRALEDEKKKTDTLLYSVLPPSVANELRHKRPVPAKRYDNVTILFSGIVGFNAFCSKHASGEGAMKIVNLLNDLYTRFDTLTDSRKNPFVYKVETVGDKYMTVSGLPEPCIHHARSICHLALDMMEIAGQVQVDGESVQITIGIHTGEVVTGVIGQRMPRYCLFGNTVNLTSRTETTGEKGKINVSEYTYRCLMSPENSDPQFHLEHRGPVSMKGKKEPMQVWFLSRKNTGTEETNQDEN
The assay is described as follows: Effect on recombinant guanylate cyclase reporter cell line (CHO-K1-Rat sGC, Cisbio cGMP HTRF). The class given is cell-based. Particulars: activating soluble guanylate cyclase. From the text:
Transfection of Soluble Guanylate Cyclase (sGC) gene into CHO-K1 cells and selection of cells with stably and highly expressed sGC: Rat sGCα1 and Rat sGCβ1 Genes were synthesized, and then pcDNA3.1(+)-rat sGCα1 and pcDNA3.1/Hygro (+)-rat sGCβ1 plasmid were constructed; the plasmid was co-transfected into CHO-K1 cells, and a positive clone cell line stably expressing CHO-K1-Rat sGC was selected using the Cisbio cGMP HTRF assay kit.
The activity of the compound on the CHO-K1-Rat sGC monoclonal cell line was determined: The CHO-K1-Rat sGC monoclonal cell line was cultured, and used for test operation at degree of fusion of about 70% to 90%. The cells were resuspended in complete medium after TrypLE digestion; the cells were inoculated in a 384-well (low volume tissues culture treated) cell culture plate at a seeding density of 7500/well in 25 μL of complete medium and incubated at 37° C. in 5% CO2 atmosphere for 20 hours; the test compounds were dissolved and dilute with DMSO to give 10 concentration gradients (2× working concentration); 384-well cell culture plates were centrifugated (200 g) for 3 seconds by inversion at RT, medium was removed; The test compounds in each different concentration gradient and corresponding reagent were added into each cell well according to the detection process of Cisbio cGMP HTRF assay kit. The data were collected with Envision HTRF detector and the EC50 value of each compound in activating soluble guanylate cyclase was calculated.
A general note: Time-resolved FRET reads energy transfer from a long-lived donor to a nearby acceptor.

With `COC(=O)Nc1c(N)nc(-c2nn(Cc3ccccc3F)c3c(F)cccc23)nc1N` [Example 10, methyl (4,6-diamino-2-(7-fluoro-1-(2-fluorobenzyl)-1H-indazol-3-yl)pyrimidin-5-yl)carbamate], the EC50 came to 370 nM.

For orientation: EC50 means the concentration giving half of the maximal effect.
